Experimental data from patent US20240254138A1, “TRICYCLIC PYRIMIDINES AS CYCLIN-DEPENDENT KINASE 7 (CDK7) INHIBITORS” (JANSSEN PHARMACEUTICA NV, priority 2021, published 2024).

How the values were obtained:
[1] = test system: RNA Polymerase II Serine 5 phosphorylation in A549 cells overexpressing CDK7-mutant (C312S); test: Imaging-based cellular RNA PolII Ser5 phosphorylation assay in A549 cells overexpressing CDK7-mutant (C312S); assay type: cell-based, human; conditions: RNA PolII Ser5 phosphorylation, averaged over all measurements; for IC50: Homo sapiens, A549, A549 cells overexpressing CDK7-mutant (C312S), read-out: CDK7_A549 mutant hCDK7(pIC50) (converted)
Description: (§1) To evaluate inhibition of CDK7 kinase activity, a 384-well automated imaging assay was used. This assay detects Serine 5 phosphorylation on a unique heptapeptide sequence in the C-terminal domain of Rpb1 subunit of RNA polymerase II, the downstream substrate of CDK7. This heptapeptide sequence is repeated up to 52 times in the CTD of Rpb1.
(§2) A549 adenocarcinoma human alveolar basal epithelial cells (ATCC, CCL-185), rabbit Phospho-Rpb1 CTD (Ser5) antibody (D9N51 (Cell Signaling Technology)), DMEM (Sigma), Fetal Bovine Serum (Biowest), L-glutamine (Sigma), Penicillin/Streptomycin (Life Technologies), Sodium Pyruvate (Sigma), Hepes (Sigma), poly-D-lysine coated μclear 384 black plates (Greiner), formaldehyde (PolySciences), D-PBS (Sigma), Methanol (Sigma), Alexa Fluor 488 goat anti rabbit IgG secondary antibody (Life Technologies), HCS CellMask™ Deep Red stain (Life Technologies), Hoechst 33258 (Invitrogen).
(§3) RNA Polymerase II Serine 5 phosphorylation was detected using a specific rabbit Phospho-Rpb1 CTD (Ser5) antibody. A549 adenocarcinoma human alveolar basal epithelial cells were seeded in 20 μl medium (DMEM supplemented with 1% Fetal Bovine Serum (heat inactivated 30′ 56° C.), 2 mM L-glutamine, 50 U/ml penicillin 50 μg/ml streptomycin, 1 mM sodium pyruvate and 50 mM hepes) at 1000 cells/well and cultured in poly-D-lysine coated μclear 384 black plates for 20 hours at 37° C. and 5% CO2.
(§4) After incubation cells were challenged with compound for 3 hours at 37° C. and 5% CO2. DMSO was used as high control and as low control 10 μM of the following reference compound was used:
(§5) 40 nl of test compounds and controls were spotted in cell plates using Echo Liquid Handler (Echo 550, Labcyte). Incubation was followed by 20 minutes fixation with 20 μl 10% formaldehyde at room temperature. Medium/formaldehyde solution was removed, plates were washed 3 times with 30 μl D-PBS (w/o Ca^2+ and Ma^2+) and permeabilization was done by adding 20 μl ice cold methanol for 20 minutes. Cells were washed again 3 times with 30 μl D-PBS and 20 μl blocking buffer (25 ml fetal bovine serum in 500 ml D-PBS) was added for 1 hour.
(§6) After removing blocking buffer 20 μl 1/1000 primary antibody rabbit Phospho-Rpb1 CTD (Ser5) antibody was added which binds to the phosphorylated Serine5 of the heptapeptide sequences in the CTD of Rpb1. Primary antibody was removed, and plates were washed 3 times with 30 μl D-PBS followed by addition of 20 μl 1/2000 Alexa Fluor 488 goat anti rabbit IgG secondary antibody for final detection of Phospho-Rpb1 CTD (Ser5) together with 1/5000 HCS CellMask™ Deep Red stain for membrane staining and 1/5000 Hoechst 33258 for nucleus staining. Last, plates were washed 2 times with 30 μl D-PBS and wells were filled with 40 μL D-PBS, plates were sealed (Thermowell sealing tape) and stored at 4° C. until reading. Plates were read with Opera Phenix (Perkin Elmer) with 10× air objective. Data were calculated and analyzed in Phaedra.
(§7) IC50 values were calculated using the following formula: […]
(§8) Average value of all HC's and all LC's are used for normalizations.
(§9) A best-fit curve is fitted by a minimum sum of squares method to the plot of % Control vs. compound concentration. From this an IC50 value can be obtained. An estimate of the slope of the plot in terms of the Hill coefficient is also obtained.
In parallel this assay was performed in A549 cells overexpressing CDK7-mutant (C312S) to evaluate the effect of the covalent bond on potency and to screen for potential off-target effects. Mutation of Cysteine to Serine (C312S), a less nucleophilic amino acid, prevents CDK7 inhibitors from covalently binding to CDK7 and from inhibiting CDK7 activity in an irreversible manner. A stably transduced A549 cell pool was generated that overexpresses CDK7 mutant (C312S), but also expresses endogenous CDK7-WT. Covalent binders targeting the cysteine at position 312 will show a shift in potency in A549 cells overexpressing mutant C312S CDK7.

[2] = test system: RNA Polymerase II Serine 5 phosphorylation (Rpb1 CTD, downstream substrate of CDK7) in A549 cells; test: Imaging-based cellular RNA PolII Ser5 phosphorylation assay in A549 cells; assay type: cell-based, human; conditions: wild-type CDK7, RNA PolII Ser5 phosphorylation, averaged over all measurements; for IC50: Homo sapiens, A549, A549 cells, read-out: CDK7_A549 Wild-type CDK7 (pIC50) (converted); for CDK7_A549 Wild-type CDK7 (pIC50): A549 cells
Description: as §1, §2, §3, §4, §5, §6, §7, §8, §9

Row | Structure (SMILES) | IC50 [1] | IC50 [2] | CDK7_A549 mutant hCDK7(pIC50) ([1]; A549 cells overexpressing CDK7-mutant (C312S)) | CDK7_A549 Wild-type CDK7 (pIC50) [2]
1 | C=CC(=O)N1CCC(n2cc(-c3cc4c(c(C)n3)OCc3c(N5CCOCC5)ccnc3N4)cn2)CC1 [Compound 390] | 8.71 µM | 0.214 µM | – | –
2 | CC#CC(=O)N1CC(N2CC[C@@H](c3cc4c(c(C)n3)OCc3c(N5CCOCC5)ccnc3N4)N(C)CC2)C1 (single isomer, unassigned) [Compound 446] | > 10 µM | 0.794 µM | – | –
3 | C=CC(=O)N1CCC(Oc2cc(-c3cc4c(c(C)n3)OCc3c(N5CCOCC5)ccnc3N4)ccn2)CC1 [Compound 407] | 7.76 µM | 1.91 µM | – | –
4 | CC#CC(=O)N1CCC(N2CC(c3nc(C)c4c(n3)Nc3nccc(N5CCOCC5)c3[C@@H](C)O4)C2)CC1 [Compound 546] | > 10 µM | 2.75 µM | – | –
5 | C=CC(=O)N1CC[C@H](N2CC(c3cc4c(c(C)n3)O[C@@H](C)c3c(C5CCOCC5)ccnc3N4)C2)C1 (single isomer, unassigned) [Compound 337] | > 10 µM | > 5.01 µM | – | –
6 | C#Cc1cc2c(cc1C1CCN(C3CN(C(=O)C=C)C3)CC1)Nc1nccc(N3CCOCC3)c1[C@@H](C)O2 (single isomer, unassigned) [Compound 210] | > 10 µM | 8.51 µM | – | –
7 | CC(=O)N1CCC(N2CC(c3cc4c(c(C)n3)OCc3c(-c5cnn(C)c5)ccnc3N4)C2)CC1 [Compound 321] | 8.71 µM | 9.33 µM | – | –
8 | CC#CC(=O)N1CCC(C2CN(c3cc4c(c(C)n3)OCc3c(N5CCOCC5)ccnc3N4)C2)CC1 [Compound 451] | > 10 µM | 0.302 µM | – | –
9 | CC#CC(=O)N1CC(N2CC[C@H](c3cc4c(c(C)n3)O[C@H](C)c3c(N5CCOCC5)ccnc3N4)C2)C1 (single isomer, unassigned) [Compound 397] | > 10 µM | > 10 µM | – | –
10 | CC#CC(=O)N1CCC(N2CC(c3cc4c(c(C#N)n3)OC(C)c3c(N5CCOCC5)ccnc3N4)C2)CC1 (centres unmarked) [Compound 511] | 5.62 µM | 0.115 µM | – | –
11 | C#CCCN(C)C/C=C/C(=O)N1CC(N2CCC(c3ccc4c(c3)Nc3nccc(C5CCOCC5)c3[C@H](C)O4)CC2)C1 (single isomer, unassigned) [Compound 187] | > 10 µM | 4.07 µM | – | –
12 | CC#CC(=O)N1CC(N2CCC(c3cc4c(c(C#N)n3)OC(C)c3c(N5CCOCC5)ccnc3N4)CC2)C1 (centres unmarked) [Compound 514] | > 10 µM | 0.324 µM | – | –
13 | C#CCCN(C)C/C=C/C(=O)N1CC(N2CCC(c3ccc4c(c3)Nc3nccc(C5CCOCC5)c3[C@@H](C)O4)CC2)C1 (single isomer, unassigned) [Compound 186] | > 10 µM | 0.1 µM | – | –
14 | CC#CC(=O)N1CCC(N2CC(c3cc4c(c(C)n3)O[C@H](C)c3c(N5CCOCC5)ccnc3N4)C2)CC1 (single isomer, unassigned) [Compound 358] | 6.17 µM | 0.0398 µM | – | –
15 | CC#CC(=O)N1CCC(n2ccc(-c3ccc4c(c3)OCc3c(N5CCOCC5)ccnc3N4)cc2=O)CC1 [Compound 412] | > 10 µM | 9.77 µM | – | –
16 | CC#CC(=O)N1CCC(N2CC(c3nc(C)c4c(n3)Nc3nccc(N5CCOCC5)c3[C@H](C)O4)C2)CC1 [Compound 547] | > 10 µM | > 10 µM | – | –
17 | C=CC(=O)N1CC[C@H](N2CCC(c3cc4c(c(C)n3)OCc3c(-c5cnn(C)c5)ccnc3N4)CC2)C1 (single isomer, unassigned) [Compound 185] | > 10 µM | 0.0813 µM | – | –

Row | Structure (SMILES) | IC50 [1] | IC50 [2] | CDK7_A549 mutant hCDK7(pIC50) ([1]; A549 cells overexpressing CDK7-mutant (C312S)) | CDK7_A549 Wild-type CDK7 (pIC50) [2]
18 | C/C=C/C(=O)N1CC[C@H](N2CCC(c3cc4c(c(C)n3)OCc3c(-c5cnn(C)c5)ccnc3N4)CC2)C1 (single isomer, unassigned) [Compound 307] | > 10 µM | > 10 µM | – | –
19 | C=CC(=O)N1CCC(Cc2ccc3c(c2)Nc2nccc(-c4cnccc4C)c2CO3)C1 (centres unmarked) [Compound 6] | > 10 µM | ~9.33 µM | – | –
20 | CC#CC(=O)N1CCC(N2CCC(c3cc4c(c(C)n3)O[C@@H](C)c3c(N5CCOCC5)ccnc3N4)CC2)C1 (single isomer, unassigned) [Compound 535] | ~10 µM | 0.0631 µM | – | –
21 | C=CC(=O)N1CC(N2CCC(c3cc(C)c4c(c3)Nc3nccc(N5CCOCC5)c3CO4)CC2)C1 [Compound 20] | > 10 µM | 0.0589 µM | – | –
22 | CC#CC(=O)N1CC(n2cc(-c3cc4c(c(C)n3)O[C@H](C)c3c(N5CCOCC5)ccnc3N4)cn2)C1 (single isomer, unassigned) [Compound 434] | > 10 µM | 4.57 µM | – | –
23 | Cc1nc(C2CCN(C3CN(C(=O)/C=C/C(=O)O)C3)CC2)cc2c1OCc1c(-c3cnn(C)c3)ccnc1N2 [Compound 432] | > 10 µM | > 10 µM | – | –
24 | CC#CC(=O)N1CCC(N2CC(c3cc4c(c(C#N)n3)O[C@H](C)c3c(N5CCOCC5)ccnc3N4)C2)CC1 (single isomer, unassigned) [Compound 544] | > 10 µM | 2.95 µM | – | –
25 | C=CC(=O)N1CC[C@@H](N2CC(c3cc4c(c(C)n3)O[C@@H](C)c3c(C5CCOCC5)ccnc3N4)C2)C1 (single isomer, unassigned) [Compound 334] | > 10 µM | 5.25 µM | – | –
26 | C=CC(=O)N1CC(N2CCC(c3cc4c(c(P(C)(C)=O)n3)OCc3c(N5CCOCC5)ccnc3N4)CC2)C1 [Compound 383] | > 10 µM | > 10 µM | – | –
27 | CC#CC(=O)N1CC(N2CCC(c3cc4c(c(C)n3)OCc3c(-c5cnn(C)c5)ccnc3N4)CC2)C1 [Compound 538] | – | – | <5 | 6.49
28 | C#Cc1cc2c(cc1C1CCN(C3CN(C(=O)C=C)C3)CC1)Nc1nccc(N3CCOCC3)c1[C@H](C)O2 (single isomer, unassigned) [Compound 209] | > 10 µM | 0.1 µM | – | –
29 | C#CCCN(C)C/C=C/C(=O)N1CC(N2CCC(c3ccc4c(c3)Nc3nccc(N5CCOCC5)c3[C@H](C)O4)CC2)C1 (single isomer, unassigned) [Compound 195] | > 10 µM | 0.129 µM | – | –
30 | C=CC(=O)N1CCC(Cc2ccc3c(c2)Nc2nccc(-c4cncc(C)c4)c2CO3)C1 (centres unmarked) [Compound 5] | > 10 µM | > 10 µM | – | –
31 | C=C(C)C(=O)N1CC[C@@H](N2CCC(c3cc4c(c(C)n3)OCc3c(-c5cnn(C)c5)ccnc3N4)CC2)C1 (single isomer, unassigned) [Compound 311] | > 10 µM | > 10 µM | – | –
32 | CC#CC(=O)N1CC(N2CC[C@H](c3cc4c(c(C)n3)O[C@@H](C)c3c(N5CCOCC5)ccnc3N4)C2)C1 (single isomer, unassigned) [Compound 395] | > 10 µM | > 10 µM | – | –
33 | CC#CC(=O)N1CC[C@H](N2CC(c3cc4c(c(C)n3)O[C@H](C)c3c(N5CCOCC5)ccnc3N4)C2)C1 (single isomer, unassigned) [Compound 516] | > 10 µM | – | – | 5.68
34 | CC#CC(=O)N1CC(N2CCC(c3cc4c(c(C)n3)O[C@@H](C)c3c(-c5cnn(C)c5)ccnc3N4)CC2)C1 (single isomer, unassigned) [Compound 534] | > 10 µM | ~9.55 µM | – | –
